Experiments:
[1] = system: blackgrass; experiment: Foliar spread test for upland field; assay type: in vivo, Alopecurus aegualis; set-up: key: 0 = normal development, 5 = all killed (6 ranks vs. untreated); details: foliar spray, 500 ppm, 3 weeks, glass house 25° C.
Protocol: (§1) The herbicidal effects are evaluated according to the following 6 ranks as compared with non-treated district. (0: normal development, 1: Less damaged, 2: Slightly damaged, 3: Moderately damaged, 4: Severely damaged, 5: All killed). Incidentally, “-” in the column means not investigated.
(§2) Wagner pots, each having an area of 1/5000 are, were packed with volcanic ash soil and then each seed of corn, soybean, cotton, wheat, solgum, sugar beat, Large crabgrass, barnyardgrjass, green foxtail, blackgrass, annual bluegrass, common lambsquarters, livid amaranth, velvetleaf, morning glory, Xanthium pensylvanicum and Cassia obtusifolia was planted, covered with soil and grown in a glass house at an average temperature of 25° C. for about 2 weeks.
(§3) Each wettable powder of the desired compounds (I) shown in Tables 1 to 21, 24, 25, 28 and 29 prepared in accordance with Example 2 was diluted to 500 ppm with water containing a surfactant (0.5%) and then uniformly sprayed on the above respective plants.
(§4) After these plants were controlled in a glass house at an average temperature of 25° C. for 3 weeks, the herbicidal effects thereof were investigated.
(§5) The herbicidal effects were evaluated according to the evaluation method described in the above (1).

[2] = system: Large crabgrass; experiment: Soil treatment test for upland field; assay type: in vivo, Digitaria adscendens; set-up: key: 0 = normal development, 5 = all killed; details: 500 g/ha, 3 weeks, glass house 25° C.
Protocol: as §1
(§6) Wagner pots, each having an area of 1/5000 are, were packed with Ube soil (alluvial soil), and then each seed of corn, soybean, cotton, wheat, solgum, sugar beat, Large crabgrass, barnyard grass, green foxtail, blackgrass, annual bluegrass, common lambsquarters, livid amaranth, velvetleaf, morning glory, common Cocklebur (Xanthium strumarium) and sicklepod (Cassia obtusifolia) were planted and covered with soil.
(§7) Each wettable powder of the desired compounds (I) shown in Tables 1 to 21, 24, 25, 28 and 29 prepared in accordance with Example 2 was diluted with water containing a surfactant (0.05%) and uniformly sprayed on the surface of each soil so that an effective concentration of the compound (I) in each herbicide became 500 g/ha.
(§8) These plants were controlled in a glass house at an average temperature of 25° C. for 3 weeks, and then herbicidal effects thereof were investigated.
as §5

[3] = system: wheat; experiment: Soil treatment test for upland field; assay type: in vivo; set-up: key: 0 = normal development, 5 = all killed; details: 500 g/ha, 3 weeks, glass house 25° C.
Protocol: as §1, §6, §7, §8, §5

[4] = system: corn; experiment: Soil treatment test for upland field; assay type: in vivo; set-up: key: 0 = normal development, 5 = all killed; details: 500 g/ha, 3 weeks, glass house 25° C.
Protocol: as §1, §6, §7, §8, §5

[5] = system: sugar beat; experiment: Soil treatment test for upland field; assay type: in vivo; set-up: key: 0 = normal development, 5 = all killed; details: 500 g/ha, 3 weeks, glass house 25° C.
Protocol: as §1, §6, §7, §8, §5

[6] = system: solgum; experiment: Soil treatment test for upland field; assay type: in vivo; set-up: key: 0 = normal development, 5 = all killed; details: 500 g/ha, 3 weeks, glass house 25° C.
Protocol: as §1, §6, §7, §8, §5

[7] = system: velvetleaf; experiment: Foliar spread test for upland field; assay type: in vivo, Abutilon theophrasti; set-up: key: 0 = normal development, 5 = all killed (6 ranks vs. untreated); details: foliar spray, 500 ppm, 3 weeks, glass house 25° C.
Protocol: as §1, §2, §3, §4, §5

[8] = system: common lambsquarters; experiment: Foliar spread test for upland field; assay type: in vivo, Chenopodium album; set-up: key: 0 = normal development, 5 = all killed (6 ranks vs. untreated); details: foliar spray, 500 ppm, 3 weeks, glass house 25° C.
Protocol: as §1, §2, §3, §4, §5

[9] = system: Large crabgrass; experiment: Foliar spread test for upland field; assay type: in vivo, Digitaria adscendens; set-up: key: 0 = normal development, 5 = all killed (6 ranks vs. untreated); details: foliar spray, 500 ppm, 3 weeks, glass house 25° C.
Protocol: as §1, §2, §3, §4, §5

[10] = system: annual bluegrass; experiment: Soil treatment test for upland field; assay type: in vivo, Poa annua; set-up: key: 0 = normal development, 5 = all killed; details: 500 g/ha, 3 weeks, glass house 25° C.
Protocol: as §1, §6, §7, §8, §5

[11] = system: barnyard grass; experiment: Soil treatment test for upland field; assay type: in vivo, Eschinochloa crusgalli; set-up: key: 0 = normal development, 5 = all killed; details: 500 g/ha, 3 weeks, glass house 25° C.
Protocol: as §1, §6, §7, §8, §5

[12] = system: green foxtail; experiment: Foliar spread test for upland field; assay type: in vivo, Setaria viridis; set-up: key: 0 = normal development, 5 = all killed (6 ranks vs. untreated); details: foliar spray, 500 ppm, 3 weeks, glass house 25° C.
Protocol: as §1, §2, §3, §4, §5

[13] = system: velvetleaf; experiment: Soil treatment test for upland field; assay type: in vivo, Abutilon theophrasti; set-up: key: 0 = normal development, 5 = all killed; details: 500 g/ha, 3 weeks, glass house 25° C.
Protocol: as §1, §6, §7, §8, §5

[14] = system: morning glory; experiment: Foliar spread test for upland field; assay type: in vivo, Ipomoea spps.; set-up: key: 0 = normal development, 5 = all killed (6 ranks vs. untreated); details: foliar spray, 500 ppm, 3 weeks, glass house 25° C.
Protocol: as §1, §2, §3, §4, §5

[15] = system: morning glory; experiment: Soil treatment test for upland field; assay type: in vivo, Ipomoea spps.; set-up: key: 0 = normal development, 5 = all killed; details: 500 g/ha, 3 weeks, glass house 25° C.
Protocol: as §1, §6, §7, §8, §5

[16] = system: barnyardgrjass; experiment: Foliar spread test for upland field; assay type: in vivo, Eschinochloa crusgalli; set-up: key: 0 = normal development, 5 = all killed (6 ranks vs. untreated); details: foliar spray, 500 ppm, 3 weeks, glass house 25° C.
Protocol: as §1, §2, §3, §4, §5

[17] = system: livid amaranth; experiment: Foliar spread test for upland field; assay type: in vivo, Amaranthus lividus; set-up: key: 0 = normal development, 5 = all killed (6 ranks vs. untreated); details: foliar spray, 500 ppm, 3 weeks, glass house 25° C.
Protocol: as §1, §2, §3, §4, §5

[18] = system: common lambsquarters; experiment: Soil treatment test for upland field; assay type: in vivo, Chenopodium album; set-up: key: 0 = normal development, 5 = all killed; details: 500 g/ha, 3 weeks, glass house 25° C.
Protocol: as §1, §6, §7, §8, §5

[19] = system: annual bluegrass; experiment: Foliar spread test for upland field; assay type: in vivo, Poa annua; set-up: key: 0 = normal development, 5 = all killed (6 ranks vs. untreated); details: foliar spray, 500 ppm, 3 weeks, glass house 25° C.
Protocol: as §1, §2, §3, §4, §5

[20] = system: blackgrass; experiment: Soil treatment test for upland field; assay type: in vivo, Alopecurus aegualis; set-up: key: 0 = normal development, 5 = all killed; details: 500 g/ha, 3 weeks, glass house 25° C.
Protocol: as §1, §6, §7, §8, §5

[21] = system: wheat; experiment: Foliar spread test for upland field; assay type: in vivo; set-up: key: 0 = normal development, 5 = all killed (6 ranks vs. untreated); details: foliar spray, 500 ppm, 3 weeks, glass house 25° C.
Protocol: as §1, §2, §3, §4, §5

[22] = system: corn; experiment: Foliar spread test for upland field; assay type: in vivo; set-up: key: 0 = normal development, 5 = all killed (6 ranks vs. untreated); details: foliar spray, 500 ppm, 3 weeks, glass house 25° C.
Protocol: as §1, §2, §3, §4, §5

[23] = system: sugar beat; experiment: Foliar spread test for upland field; assay type: in vivo; set-up: key: 0 = normal development, 5 = all killed (6 ranks vs. untreated); details: foliar spray, 500 ppm, 3 weeks, glass house 25° C.
Protocol: as §1, §2, §3, §4, §5

[24] = system: solgum; experiment: Foliar spread test for upland field; assay type: in vivo; set-up: key: 0 = normal development, 5 = all killed (6 ranks vs. untreated); details: foliar spray, 500 ppm, 3 weeks, glass house 25° C.
Protocol: as §1, §2, §3, §4, §5

[25] = system: soybean; experiment: Foliar spread test for upland field; assay type: in vivo; set-up: key: 0 = normal development, 5 = all killed (6 ranks vs. untreated); details: foliar spray, 500 ppm, 3 weeks, glass house 25° C.
Protocol: as §1, §2, §3, §4, §5

[26] = system: cotton; experiment: Foliar spread test for upland field; assay type: in vivo; set-up: key: 0 = normal development, 5 = all killed (6 ranks vs. untreated); details: foliar spray, 500 ppm, 3 weeks, glass house 25° C.
Protocol: as §1, §2, §3, §4, §5

[27] = system: livid amaranth; experiment: Soil treatment test for upland field; assay type: in vivo, Amaranthus lividus; set-up: key: 0 = normal development, 5 = all killed; details: 500 g/ha, 3 weeks, glass house 25° C.
Protocol: as §1, §6, §7, §8, §5

[28] = system: green foxtail; experiment: Soil treatment test for upland field; assay type: in vivo, Setaria viridis; set-up: key: 0 = normal development, 5 = all killed; details: 500 g/ha, 3 weeks, glass house 25° C.
Protocol: as §1, §6, §7, §8, §5

Row | SMILES | Effects Blackgrass [1] | Effects Large crabgrass [2] | Effects Wheat [3] | Effects Corn [4] | Effects Sugar beat [5] | Effects Solgum [6] | Effects Velvetleaf [7] | Effects Common lambsquarters [8] | Effects Large crabgrass [9] | Effects Annual bluegrass [10] | Effects Barnyardgrass [11] | Effects Green foxtail [12] | Effects Velvetleaf [13] | Effects Morning glory [14] | Effects Morning glory [15] | Effects Barnyardgrass [16] | Effects Livid amaranth [17] | Effects Common lambsquarters [18] | Effects Annual bluegrass [19] | Effects Blackgrass [20] | other results
1 | CC(=Cc1cccc(C(F)(F)F)c1)c1nc2cc(C#N)c(Cl)cc2o1 [I-c-141] | 1 | 5 | 0 | 0 | 5 | 0 | 4 | 5 | 3 | 5 | 4 | 5 | 5 | 5 | 5 | 1 | 5 | 5 | 3 | 4 | Effects Wheat [21]: 1; Effects Corn [22]: 2; Effects Sugar beat [23]: 5; Effects Solgum [24]: 1; Effects Soybean [25]: 3; Effects Sotton [26]: 5; Effects Livid amaranth [27]: 5; Effects Green foxtail [28]: 5
2 | CCC(=Cc1cccc(C(F)(F)F)c1)c1nc2ccc([N+](=O)[O-])cc2o1 [I-c-15] | 3 | 5 | 1 | 1 | 2 | 1 | 3 | 5 | 4 | 5 | 4 | 4 | 2 | 5 | 2 | 3 | 5 | 5 | 4 | 5 | Effects Wheat [21]: 2; Effects Corn [22]: 2; Effects Sugar beat [23]: 4; Effects Solgum [24]: 2; Effects Soybean [25]: 5; Effects Sotton [26]: 3; Effects Livid amaranth [27]: 5; Effects Green foxtail [28]: 5
3 | CC(=Cc1cccc(C(F)(F)F)c1)c1nc2cc(Cl)ccc2o1 [I-c-53] | 4 | 5 | 1 | 1 | 5 | 0 | 3 | 5 | 4 | 5 | 5 | 5 | 1 | 5 | 2 | 1 | 5 | 5 | 4 | 5 | Effects Wheat [21]: 1; Effects Corn [22]: 3; Effects Sugar beat [23]: 5; Effects Solgum [24]: 1; Effects Soybean [25]: 4; Effects Sotton [26]: 3; Effects Livid amaranth [27]: 5; Effects Green foxtail [28]: 5
4 | CCCC(=Cc1cccc(C(F)(F)F)c1)c1nc2cc(F)c(F)cc2o1 [I-c-113] | 4 | 5 | 2 | 2 | 5 | 2 | 4 | 5 | 4 | 5 | 5 | 5 | 5 | 5 | 4 | 3 | 5 | 5 | 4 | 5 | Effects Wheat [21]: 2; Effects Corn [22]: 2; Effects Sugar beat [23]: 5; Effects Solgum [24]: 3; Effects Soybean [25]: 5; Effects Sotton [26]: 5; Effects Livid amaranth [27]: 5; Effects Green foxtail [28]: 5

Reference: patent publication US7402548B2, “Benzoxazole compounds, process for producing the same and herbicides” (Kyoyu Agri Co., Ltd., priority 2000, dated 2008)
